Measured values taken from publication PMC11161644, “An effective and rapidly degradable disinfectant from disinfection byproducts” (Nature Communications, 2024).
Where “and” joins values, the source holds several entries; their conditions need not be identical. Identical values can stand only once.

How the values were obtained:
P. dumerilii embryos = test: Developmental toxicity assay with P. dumerilii embryos, dilution factor of in-use concentration (EC50,DF), also after degradation in darkness; format: in vivo, Platynereis dumerilii
From the text: The DBP doses for 3-log E. coli reduction (pH 7.2) were set as the in-use concentrations, which were serially diluted and added to the P. dumerilii embryos at 12-h postfertilization. A dilution factor was defined as the ratio of the in-use concentration to the exposure concentration. Each exposure set contained a control sample (i.e., the embryos at 12-h postfertilization developed in seawater without the addition of DBPs). By 24-h postfertilization, normally developed embryos should have reached the first larval stage. An inverted stereomicroscope (×40 magnification) was used to observe the larvae. The normal development percentage was calculated as the ratio of normally developed embryos to total embryos. By plotting the curve of the normal development percentage versus the dilution factor, the EC50,DF value (i.e., the dilution factor corresponding to 50% of the normal development percentage of the control sample) was obtained using SigmaPlot 12. The developmental toxicity test was conducted in duplicate.

S. aureus (ATCC 25923) = test: Inactivation of S. aureus (contact time 5 min); format: cell-based, Staphylococcus aureus; settings: Staphylococcus aureus, ATCC25923, 5 min, pH 7.2, S. aureus; dose 300 mg L-1; pH 7.2; contact time 5 min; read-out: Log (N/N0)
Description: The chemicals and reagents used are detailed in Supplementary Note 1. The bacteria E. coli (ATCC 25922) and S. aureus (ATCC 25923) were cultured aerobically in Luria-Bertani broth (Sigma-Aldrich) and Tryptone Soya broth (Oxoid), respectively, at 37 °C for 16 h. The fungus C. albicans (ATCC 14053) was aerobically cultured in Sabouraud Dextrose broth (Difco) at 37 °C for 24 h. The microorganism cells were harvested by centrifugation at 1200×g (10 min, 4 °C) and resuspended in phosphate-buffered saline (PBS, 10 mM, pH 7.2). The disinfection experiments were performed in PBS solutions (10 mM, pH 7.2) with an initial concentration of E. coli, S. aureus, or C. albicans of 10^6‒10^7 cells per milliliter. A contact time of 5 min was used in accordance with the recommended time range of 0.25–10 min by USEPA for surface disinfection. Preliminary tests were conducted to determine the appropriate range of DBP doses. The appropriate dose range was established when the lowest and highest doses could achieve <1-log and >3-log of microbial inactivation, respectively. Based on the preliminary results, a series of doses of DBPs were added to the cell suspensions at room temperature (22 ± 1 °C). After the contact time of 5 min, the microorganism cells were enumerated following a membrane filter method. Briefly, serial 10-fold dilutions were conducted for the disinfected samples and the control sample without disinfection. Each diluted suspension was subjected to filtration through 0.45-μm membrane, which was then placed on a petri dish. The Petri dishes containing E. coli, S. aureus, and C. albicans were incubated in m-FC medium (Becton Dickinson & Co) at 45 °C for 24 h, in Tryptone Soya broth at 37 °C for 24 h and in Sabouraud Dextrose broth at 37 °C for 24 h, respectively. After incubation, the colony-forming units within a statistically reasonable range (20–80) were counted.

[1] = Degradation in seawater in darkness (pH 6.2, 7.2, 8.2); settings: for half-life at 10 mg L−1: pretreated seawater in darkness; for Ln (C/C0): seawater pH 8.2, darkness, 0 min
Description: To study the DBP degradation in seawater in darkness, a DBP was added at 10 mg L^−1 to 50 mL pretreated seawater (pH 8.2) in the quartz flasks. The flasks were wrapped with aluminum foil to simulate the dark condition. The samples were kept at 20 °C in darkness for 0‒120 h, during which the sample was adjusted to pH 6.2 and 7.2 or maintained at pH 8.2 by adding 4 mM phosphate buffer (pH 6.2, 7.2, and 8.2, respectively).
(§1) For the DBP samples with and without sunlight, aliquots were taken at a specific reaction time. The sample aliquots were analyzed using Agilent high-performance liquid chromatography (HPLC) equipped with a Poroshell 120 EC-C18 column (4.6 × 150 mm, 4 µm particle size, Agilent) and a UV detector. The mobile phase, consisting of water (pre-adjusted to pH 2 with phosphoric acid) and acetonitrile at 50/50 (v/v), was applied at a flow rate of 1.0 mL min^−1. PCMX, 2,4-dihalophenols and 5-halosalicylic acids were detected at the wavelength of 230 nm. 2,5-Dihalohydroquinones and 2,6-DCQ were detected at the wavelength of 280 nm. All the degradation experiments were conducted in duplicate.

[2] = Degradation in seawater with simulated solar irradiation; settings: for half-life at 10 mg L−1: pretreated seawater under simulated solar irradiation, pH 8.2; for Ln (C/C0): seawater pH 8.2, solar irradiation, 0 min
Description: The solar photolysis experiments were conducted in a chamber equipped with eight simulated sunlight full-spectrum lamps (BlueMax 5900, Full Spectrum Solutions). The temperature in the chamber was maintained at 20 °C. The total intensity of simulated sunlight was determined using a digital photometer (DT-1010B, Shenzhen Golden Octopus, China). Quartz flasks were positioned in the chamber where the total intensity of simulated sunlight was 4.79 ± 0.04 mW cm^−2 for each quartz flask. […] A DBP was added at 10 mg L^−1 to 50 mL pretreated seawater (pH 8.2) in the quartz flasks and exposed to the simulated solar irradiation for 0‒96 h. Every 8 h, the quartz flasks were rotated in and out of the chamber, and the sample volume was determined and adjusted with ultrapure water to account for any water evaporation. During the solar irradiation experiments, the sample was adjusted to pH 6.2 and 7.2 or maintained at pH 8.2 by adding 4 mM phosphate buffer (pH 6.2, 7.2, and 8.2, respectively).
as §1

[3] = pH 6.2, degradation time 15 min
[4] = pH 6.2, degradation time 30 min
[5] = pH 6.2, degradation time 60 min
[6] = pH 6.2, degradation time 90 min
[7] = pH 6.2, degradation time 120 min
[8] = pH 6.2, degradation time 180 min
[9] = pH 6.2, degradation time 240 min
[10] = pH 7.2, degradation time 15 min
[11] = pH 7.2, degradation time 30 min
[12] = pH 7.2, degradation time 45 min
[13] = pH 7.2, degradation time 60 min
[14] = pH 7.2, degradation time 90 min
[15] = pH 7.2, degradation time 120 min
[16] = pH 7.2, degradation time 180 min
[17] = pH 8.2, degradation time 12 min
[18] = pH 8.2, degradation time 16 min
[19] = pH 8.2, degradation time 20 min
[20] = pH 8.2, degradation time 25 min

SMILES	log reduction at 300 µg/mL (S. aureus (ATCC 25923))	Relative concentration remaining (1 at 0 min) ([1]; pH 6.2, degradation time 0 min)	Relative concentration remaining (1 at 0 min) [1, 3]	Relative concentration remaining (1 at 0 min) [1, 4]	Relative concentration remaining (1 at 0 min) [1, 5]	Relative concentration remaining (1 at 0 min) [1, 6]	Relative concentration remaining (1 at 0 min) [1, 7]	Relative concentration remaining (1 at 0 min) [1, 8]	Relative concentration remaining (1 at 0 min) [1, 9]	Relative concentration remaining (1 at 0 min) ([1]; pH 7.2, degradation time 0 min)	Relative concentration remaining (1 at 0 min) [1, 10]	Relative concentration remaining (1 at 0 min) [1, 11]	Relative concentration remaining (1 at 0 min) [1, 12]	Relative concentration remaining (1 at 0 min) [1, 13]	Relative concentration remaining (1 at 0 min) [1, 14]	Relative concentration remaining (1 at 0 min) [1, 15]	Relative concentration remaining (1 at 0 min) [1, 16]	Relative concentration remaining (1 at 0 min) ([1]; pH 8.2, degradation time 0 min)	Relative concentration remaining (1 at 0 min) ([1]; pH 8.2, degradation time 3 min)	Relative concentration remaining (1 at 0 min) ([1]; pH 8.2, degradation time 8 min)	other results
Oc1cc(Br)c(O)cc1Br [2,5-DBHQ, 2,5-dibromohydroquinone]	0.62	1	0.9903 and 1.013	1.0399 and 0.9876	1.018 and 0.9782	1.002 and 0.9911	0.974 and 0.967	0.9787 and 0.9462	0.9527 and 0.9358	1	1.006 and 0.9535	0.9742 and 0.9233	0.8634 and 0.8365	0.7743 and 0.7531	0.6443 and 0.5863	0.5356 and 0.4974	0.3959 and 0.345	1	0.7301 and 0.7188	0.5509 and 0.4986	Normal development (%) (P. dumerilii embryos; dilution factor 366.306): 0%; Normal development (%) (P. dumerilii embryos; dilution factor 439.567): 8.76% and 2.206%; Normal development (%) (P. dumerilii embryos; dilution factor 549.459): 13.3508% and 11.7022%; Normal development (%) (P. dumerilii embryos; dilution factor 732.612): 55.6452% and 53.271%; Normal development (%) (P. dumerilii embryos; dilution factor 1098.92): 74.7747% and 73.7705%; Normal development (%) (P. dumerilii embryos; dilution factor 2197.84): 91.7072% and 82.9908%; Relative concentration remaining (1 at 0 min) [1, 17]: 0.3915 and 0.3688; Relative concentration remaining (1 at 0 min) [1, 18]: 0.2832 and 0.2676; Relative concentration remaining (1 at 0 min) [1, 19]: 0.2193 and 0.1797; Relative concentration remaining (1 at 0 min) [1, 20]: 0.1418 and 0.1248; half-life at 10 mg L−1 ([1]; pH 8.2): 9 min; Ln (C/C0) [1]: 0; half-life at 10 mg L−1 [2]: 9.6 min; Ln (C/C0) [2]: 0
Oc1cc(I)c(O)cc1I [2,5-DIHQ, 2,5-diiodohydroquinone]	0.792	1	1.009 and 0.9751	1.028 and 0.9729	1.02 and 0.9831	0.9778 and 1.02	1 and 0.9297	0.9306 and 0.9617	0.9273 and 0.981	1	1.0017 and 0.9494	1.002 and 0.9365	0.934 and 0.9212	0.9213 and 0.886	0.8145 and 0.7791	0.7145 and 0.6664	0.5609 and 0.5354	1	0.721 and 0.687	0.4796 and 0.4372	Normal development (%) (P. dumerilii embryos; dilution factor 86.0274): 0.8729% and 0%; Normal development (%) (P. dumerilii embryos; dilution factor 103.233): 7.707% and 3.405%; Normal development (%) (P. dumerilii embryos; dilution factor 129.041): 16.1617% and 11.8279%; Normal development (%) (P. dumerilii embryos; dilution factor 172.055): 46.0177% and 46.8181%; Normal development (%) (P. dumerilii embryos; dilution factor 258.082): 63.2599% and 58.9623%; Normal development (%) (P. dumerilii embryos; dilution factor 516.165): 88.6525% and 83.3333%; Relative concentration remaining (1 at 0 min) [1, 17]: 0.4155 and 0.3689; Relative concentration remaining (1 at 0 min) [1, 18]: 0.2998 and 0.2743; Relative concentration remaining (1 at 0 min) [1, 19]: 0.2215 and 0.1988; Relative concentration remaining (1 at 0 min) [1, 20]: 0.1592 and 0.1253; half-life at 10 mg L−1 ([1]; pH 8.2): 9.6 min; Ln (C/C0) [1]: 0; half-life at 10 mg L−1 [2]: 9.6 min; Ln (C/C0) [2]: 0
